Laboratory results: ChEMBL document CHEMBL1201862, “PubChem BioAssay data set” (2004)
Calls of active or inactive are those of the source.

Key:
[1] = tested on: A-375; experiment: proliferation inhibition in MITF-low A375 cells – cell-based, cherry-pick samples, set 2, counter-screen for MITF modulator project, dose response (AID 540335); assay type: functional; conditions: Homo sapiens
[2] = tested on: A-375; experiment: MITF: Counter assay: A375 proliferation Measured in Cell-Based System Using Plate Reader - 2084-03_Inhibitor_Dose_DryPowder_Activity. [Related pubchem assays (depositor defined):AID488944]; assay type: functional; conditions: Homo sapiens
[3] = tested on: Escherichia coli; experiment: microbe, parasite or virus in culture
[4] = target: Mu-type opioid receptor (Homo sapiens, UniProt P35372); experiment: Counterscreen for agonists of heterodimerization of the mu 1 (OPRM1) and delta 1 (OPRD1) opioid receptors: Luminescence-based cell-based high throughput dose response assay to identify agonists of OPRM1 homodimerization.; assay type: functional;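 further: U2OS cells expressing OPRM1 and beta-arrestin as split beta-galactosidase partners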
[5] = target: 5-hydroxytryptamine receptor 5A (Homo sapiens, UniProt P47898); experiment: Counterscreen for agonists of OPRM1-OPRD1 heterodimerization: luminescence-based cell-based high throughput dose response assay to identify agonists of 5-hydroxytryptamine (serotonin) 5A receptor (HTR5A). [Related pubchem assays (depositor defined):AID504326, AID504355, AID504692, AID504904, AID504905]; assay type: functional
[6] = target: Delta-type opioid receptor (Homo sapiens, UniProt P41143); experiment: Counterscreen for agonists of heterodimerization of the mu 1 (OPRM1) and delta 1 (OPRD1) opioid receptors: Luminescence-based cell-based high throughput dose response assay to identify agonists of OPRD1 homodimerization. [Related pubchem assays (depositor defined):AID504326, AID504355, AID504692, AID504904, AID504905]; assay type: functional
[7] = target: T1, Short transient receptor potential channel 4 (Mus musculus, UniProt Q9QUQ5); experiment: calcium entry via TRPC4 opening agents – cell-based, HEK293 TRPC4/mu-opioid, Fluo-4 calcium, dose response (AID 434937); assay type: functional
T1 sequence (Q9QUQ5 whole entry): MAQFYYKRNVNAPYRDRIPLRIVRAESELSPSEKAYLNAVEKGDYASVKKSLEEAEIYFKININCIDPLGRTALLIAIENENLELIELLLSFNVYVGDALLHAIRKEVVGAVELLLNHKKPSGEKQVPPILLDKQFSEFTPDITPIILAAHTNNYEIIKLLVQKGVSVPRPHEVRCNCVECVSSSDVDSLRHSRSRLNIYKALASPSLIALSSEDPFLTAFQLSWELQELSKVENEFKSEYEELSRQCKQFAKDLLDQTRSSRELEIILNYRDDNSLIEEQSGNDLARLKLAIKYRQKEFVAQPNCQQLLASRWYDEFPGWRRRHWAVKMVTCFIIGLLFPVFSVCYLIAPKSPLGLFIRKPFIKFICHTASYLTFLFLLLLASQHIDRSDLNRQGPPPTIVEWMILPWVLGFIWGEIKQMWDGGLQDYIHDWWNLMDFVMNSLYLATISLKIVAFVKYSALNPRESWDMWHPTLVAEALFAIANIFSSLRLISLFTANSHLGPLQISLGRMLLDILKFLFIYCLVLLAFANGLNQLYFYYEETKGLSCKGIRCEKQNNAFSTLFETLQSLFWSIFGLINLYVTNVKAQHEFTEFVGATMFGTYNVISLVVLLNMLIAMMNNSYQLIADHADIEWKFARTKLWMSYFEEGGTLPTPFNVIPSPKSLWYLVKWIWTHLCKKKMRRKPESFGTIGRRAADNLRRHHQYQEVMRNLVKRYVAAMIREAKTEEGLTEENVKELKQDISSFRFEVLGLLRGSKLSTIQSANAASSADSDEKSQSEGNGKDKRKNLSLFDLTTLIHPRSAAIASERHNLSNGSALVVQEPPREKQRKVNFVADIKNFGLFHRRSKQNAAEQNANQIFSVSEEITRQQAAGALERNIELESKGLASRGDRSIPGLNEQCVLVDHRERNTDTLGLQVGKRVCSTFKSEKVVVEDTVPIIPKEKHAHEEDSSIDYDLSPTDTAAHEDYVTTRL

[8] = tested on: BJ; experiment: BJ-TERT-LT-ST fibroblast viability loss – cell-based, RAS-independent, luminescence, dose response (AID 1935); assay type: functional; conditions: Homo sapiens;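 further: BJ fibroblasts immortalized with TERT plus LT and ST oncogenes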
[9] = target: T2, Insulin-degrading enzyme (Homo sapiens, UniProt P14735); experiment: cellular IDE activation of Abeta substrate cleavage – fluorescence polarization, HEK cells, dose response (AID 588439); assay type: functional, cell-based
T2 sequence (P14735 whole entry): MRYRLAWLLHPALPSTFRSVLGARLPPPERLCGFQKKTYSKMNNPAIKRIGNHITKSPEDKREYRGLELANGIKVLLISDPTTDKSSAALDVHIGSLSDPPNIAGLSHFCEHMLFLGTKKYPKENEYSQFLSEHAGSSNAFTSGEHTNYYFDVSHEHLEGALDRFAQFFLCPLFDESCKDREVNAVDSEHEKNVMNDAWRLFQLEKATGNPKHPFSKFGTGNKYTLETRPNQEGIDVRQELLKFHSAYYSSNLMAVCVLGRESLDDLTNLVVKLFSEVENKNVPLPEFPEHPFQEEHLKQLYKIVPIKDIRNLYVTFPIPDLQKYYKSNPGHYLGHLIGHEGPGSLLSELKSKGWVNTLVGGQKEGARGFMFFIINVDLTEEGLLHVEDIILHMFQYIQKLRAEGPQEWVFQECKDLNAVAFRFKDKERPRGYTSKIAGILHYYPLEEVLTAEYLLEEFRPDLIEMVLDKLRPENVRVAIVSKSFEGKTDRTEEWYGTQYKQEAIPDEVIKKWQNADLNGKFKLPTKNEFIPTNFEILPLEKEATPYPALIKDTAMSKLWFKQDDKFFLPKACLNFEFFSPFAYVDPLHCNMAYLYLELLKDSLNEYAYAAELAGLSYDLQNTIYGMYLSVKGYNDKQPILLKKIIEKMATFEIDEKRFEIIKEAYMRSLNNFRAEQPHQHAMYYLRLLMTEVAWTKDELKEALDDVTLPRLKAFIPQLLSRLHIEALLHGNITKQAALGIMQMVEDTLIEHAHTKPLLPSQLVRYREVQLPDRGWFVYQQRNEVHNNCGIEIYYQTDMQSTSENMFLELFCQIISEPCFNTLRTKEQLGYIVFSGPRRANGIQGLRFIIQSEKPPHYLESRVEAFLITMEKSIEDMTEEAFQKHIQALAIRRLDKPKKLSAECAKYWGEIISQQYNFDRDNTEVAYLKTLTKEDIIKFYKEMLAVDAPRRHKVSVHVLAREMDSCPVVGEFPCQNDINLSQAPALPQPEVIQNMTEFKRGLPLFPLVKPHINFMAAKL

[10] = tested on: BJ; experiment: cells; assay type: functional, cell-based; conditions: Homo sapiens
[11] = target: T3, G-protein coupled receptor 55 (Homo sapiens, UniProt Q9Y2T6); experiment: selective activators of receptor GPR55 – imaging, U2OS cells, beta-arrestin-GFP redistribution, primary screen (AID 1961); assay type: functional
[12] = tested on: HEK293; experiment: cells; conditions: Homo sapiens
[13] = target: T3, G-protein coupled receptor 55; experiment: inhibition of LPI-stimulated GPR55 beta-arrestin translocation – imaging, U2OS, beta-arrestin-GFP, LPI agonist, primary screen (AID 2013); assay type: functional;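 further: antagonist potency measured as reduced agonist-driven arrestin aggregation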
[14] = target: T4, Protein RecA (Mycobacterium tuberculosis, UniProt P9WHJ3); experiment: Fluorescence Cell-Free Homogeneous Dose Retest to Identify Inhibitors of RecA-Intein Splicing Activity. [Related pubchem assays (depositor defined):AID2097, AID2223, AID489010, AID492950]; assay type: functional
T4 sequence (P9WHJ3 whole entry): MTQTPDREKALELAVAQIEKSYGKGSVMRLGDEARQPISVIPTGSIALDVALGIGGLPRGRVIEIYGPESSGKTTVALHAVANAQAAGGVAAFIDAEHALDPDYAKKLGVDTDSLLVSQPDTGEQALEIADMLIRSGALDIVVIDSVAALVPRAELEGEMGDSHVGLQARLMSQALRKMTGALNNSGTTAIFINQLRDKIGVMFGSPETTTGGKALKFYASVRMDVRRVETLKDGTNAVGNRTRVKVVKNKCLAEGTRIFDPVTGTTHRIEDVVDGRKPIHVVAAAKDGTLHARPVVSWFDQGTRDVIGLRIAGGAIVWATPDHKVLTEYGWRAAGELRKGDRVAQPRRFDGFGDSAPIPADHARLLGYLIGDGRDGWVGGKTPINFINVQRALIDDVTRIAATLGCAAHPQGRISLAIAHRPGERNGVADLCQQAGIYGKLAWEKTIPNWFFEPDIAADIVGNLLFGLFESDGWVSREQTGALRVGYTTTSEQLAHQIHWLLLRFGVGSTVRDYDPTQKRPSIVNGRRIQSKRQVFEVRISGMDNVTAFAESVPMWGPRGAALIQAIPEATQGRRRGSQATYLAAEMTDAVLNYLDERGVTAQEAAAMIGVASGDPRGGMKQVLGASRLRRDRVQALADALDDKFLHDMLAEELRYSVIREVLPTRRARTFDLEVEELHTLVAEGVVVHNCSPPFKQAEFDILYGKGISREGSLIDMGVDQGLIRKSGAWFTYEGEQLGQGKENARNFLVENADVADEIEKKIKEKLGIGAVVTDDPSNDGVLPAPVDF

[15] = tested on: HEK293; experiment: optical interference in Abeta FP readout, dose response, artefact control for IDE activator project, biochemical, fluorescence polarization (AID 588442); assay type: functional, cell-based; conditions: Homo sapiens
[16] = tested on: BJ; experiment: growth inhibition of engineered Ras-driven BJ cells – cell-based, alamar blue fluorescence, cherrypicked samples, dose response (AID 2631); assay type: functional; conditions: Homo sapiens;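 further: confirmatory dose-response assay in RAS-dependent BJ fibroblasts engineered with TERT, LT and ST, with cytotoxicity read by fluorescence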
[17] = tested on: Vero; experiment: cells; assay type: functional; conditions: Chlorocebus sabaeus
[18] = tested on: BJ; experiment: BJ-TERT fibroblast viability loss – cell-based, RAS-independent, luminescence, dose response (AID 1933); assay type: functional; conditions: Homo sapiens
[19] = target: T5, Replicative DNA helicase DnaB (Mycobacterium tuberculosis, UniProt P9WMR3); experiment: DnaB intein splicing inhibitors, dose response, biochemical, cell-free fluorescence (AID 449749); assay type: functional
T5 sequence (P9WMR3 whole entry): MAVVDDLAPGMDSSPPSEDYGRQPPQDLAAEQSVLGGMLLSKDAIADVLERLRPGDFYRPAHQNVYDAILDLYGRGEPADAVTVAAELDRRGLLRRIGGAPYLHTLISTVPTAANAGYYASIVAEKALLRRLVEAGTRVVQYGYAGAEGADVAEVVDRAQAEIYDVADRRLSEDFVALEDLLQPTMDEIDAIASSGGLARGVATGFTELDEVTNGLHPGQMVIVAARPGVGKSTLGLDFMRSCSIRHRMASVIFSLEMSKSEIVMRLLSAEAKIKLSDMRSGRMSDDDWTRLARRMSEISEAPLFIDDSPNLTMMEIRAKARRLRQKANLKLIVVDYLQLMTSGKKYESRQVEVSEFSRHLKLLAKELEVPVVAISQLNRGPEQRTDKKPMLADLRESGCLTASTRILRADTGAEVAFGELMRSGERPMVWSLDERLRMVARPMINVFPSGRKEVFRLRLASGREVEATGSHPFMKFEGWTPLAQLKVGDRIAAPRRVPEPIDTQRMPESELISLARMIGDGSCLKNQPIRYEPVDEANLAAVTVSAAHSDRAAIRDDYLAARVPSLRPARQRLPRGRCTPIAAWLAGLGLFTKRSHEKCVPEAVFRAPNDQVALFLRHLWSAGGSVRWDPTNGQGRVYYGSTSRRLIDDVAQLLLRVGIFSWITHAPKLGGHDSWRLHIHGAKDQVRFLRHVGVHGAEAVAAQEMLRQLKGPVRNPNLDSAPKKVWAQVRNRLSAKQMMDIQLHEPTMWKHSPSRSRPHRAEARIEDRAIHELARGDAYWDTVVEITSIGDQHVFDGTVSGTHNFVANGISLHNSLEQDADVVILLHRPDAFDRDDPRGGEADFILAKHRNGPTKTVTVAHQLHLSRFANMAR

[20] = DRD fibroblast viability loss – cell-based, non-viral oncogenic, luminescence, dose response (AID 1934); assay type: functional; conditions: Homo sapiens
[21] = tested on: HEK293; experiment: cells; conditions: Homo sapiens; remark: listed apart in the source
[22] = tested on: HEK293; experiment: membrane integrity loss in HEK cells – cell-based, fluorescence, cytotoxicity control for IDE activator project, dose response (AID 588440); assay type: functional; conditions: Homo sapiens;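 further: cytotoxicity by LDH release measuring loss of membrane integrity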
[23] = target: T2, Insulin-degrading enzyme; experiment: recombinant IDE activation, cell-free – biochemical, fluorescence polarization, counter-screen for IDE activator project, dose response (AID 588681)

T3 sequence (Q9Y2T6 whole entry): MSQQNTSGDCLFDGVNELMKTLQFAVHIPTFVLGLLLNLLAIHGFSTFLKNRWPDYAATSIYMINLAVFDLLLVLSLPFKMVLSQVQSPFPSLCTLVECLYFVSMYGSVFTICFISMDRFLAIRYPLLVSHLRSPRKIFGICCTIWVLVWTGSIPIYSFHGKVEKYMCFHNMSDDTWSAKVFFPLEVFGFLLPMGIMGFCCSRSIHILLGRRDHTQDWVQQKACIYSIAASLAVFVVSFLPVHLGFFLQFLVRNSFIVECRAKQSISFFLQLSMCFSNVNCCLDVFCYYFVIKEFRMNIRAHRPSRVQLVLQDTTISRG
Chain of 5-hydroxytryptamine receptor 5A (P47898 whole entry): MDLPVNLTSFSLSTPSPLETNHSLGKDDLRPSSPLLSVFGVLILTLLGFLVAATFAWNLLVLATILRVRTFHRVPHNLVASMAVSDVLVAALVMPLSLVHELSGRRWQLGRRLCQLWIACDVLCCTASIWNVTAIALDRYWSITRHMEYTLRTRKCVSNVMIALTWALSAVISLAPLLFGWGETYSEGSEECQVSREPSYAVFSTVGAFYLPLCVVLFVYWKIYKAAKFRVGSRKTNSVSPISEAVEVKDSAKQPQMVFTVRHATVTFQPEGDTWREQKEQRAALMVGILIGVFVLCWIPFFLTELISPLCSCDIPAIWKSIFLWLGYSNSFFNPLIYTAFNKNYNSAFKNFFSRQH
Chain of Mu-type opioid receptor (P35372 whole entry): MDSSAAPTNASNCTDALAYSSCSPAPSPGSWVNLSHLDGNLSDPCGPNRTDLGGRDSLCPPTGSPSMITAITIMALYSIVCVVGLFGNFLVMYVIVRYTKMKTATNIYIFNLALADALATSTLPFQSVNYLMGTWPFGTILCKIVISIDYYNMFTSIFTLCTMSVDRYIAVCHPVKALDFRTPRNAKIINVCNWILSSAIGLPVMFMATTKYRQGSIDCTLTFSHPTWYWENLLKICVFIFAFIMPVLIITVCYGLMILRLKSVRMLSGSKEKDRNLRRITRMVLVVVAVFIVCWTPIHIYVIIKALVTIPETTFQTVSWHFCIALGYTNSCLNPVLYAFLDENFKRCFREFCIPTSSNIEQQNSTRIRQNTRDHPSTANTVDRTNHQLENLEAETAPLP
Chain of Delta-type opioid receptor (P41143 whole entry): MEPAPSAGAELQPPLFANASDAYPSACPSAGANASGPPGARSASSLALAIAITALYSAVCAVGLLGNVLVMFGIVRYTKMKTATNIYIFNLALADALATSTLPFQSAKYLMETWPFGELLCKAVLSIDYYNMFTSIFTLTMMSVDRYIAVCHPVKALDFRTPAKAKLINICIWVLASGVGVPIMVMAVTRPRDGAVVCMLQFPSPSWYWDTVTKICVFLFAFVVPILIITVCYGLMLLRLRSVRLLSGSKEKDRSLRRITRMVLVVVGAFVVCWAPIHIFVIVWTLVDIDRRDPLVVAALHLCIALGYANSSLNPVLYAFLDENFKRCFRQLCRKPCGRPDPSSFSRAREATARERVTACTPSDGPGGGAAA

CCOc1ccc(/N=C(\C)C2=C(O)c3ccccc3C2=O)cc1
AC50 [1]: > 35 µM (active) | AC50 [2]: > 35 µM (active)

c1ccc2c(OCCCN3CCCCCC3)cccc2c1
AC50 [3]: 19.6 µM (active)

COC(=O)NCC(c1ccc2c(c1)OCO2)N1CCN(c2ccccc2)CC1 (stereo not drawn)
EC50 [4]: 17.3 µM (inactive) | EC50 [5]: > 92.4 µM (inactive) | EC50 [6]: > 92.4 µM (inactive) | EC50 [7]: 0.105 µM (active)

CCOC(=O)c1c(CSC(=N)N)n(-c2ccc(C)cc2)c2cc(Br)c(OC(C)=O)cc12
EC50 [8]: 5.6 µM (active) | EC50 [9]: > 54.7 µM (inactive) | EC50 [10]: 12 µM (inconclusive) | EC50 [11]: > 32 µM (inactive) | EC50 [12]: > 59.7 µM (inactive) | IC50 [13]: 5.03 µM (active) | EC50 [14]: 4.25 µM (active) | EC50 [15]: > 54.7 µM (inactive) | EC50 [16]: > 133 µM (inactive) | CC50 [17]: > 25 µM (active) | EC50 [18]: 5.98 µM (active) | AC50 [19]: 4.79 µM (active) | EC50 [20]: 9.02 µM (active) | EC50 [21]: > 59.7 µM (inactive) | IC50 [22]: 9.83 µM (active) | EC50 [23]: > 54.7 µM (inactive)
